Experimental data reported in patent publication US20230278972A1, “SUBSTITUTED HALOALKYL SULFONANILIDE HERBICIDES” (FMC Corporation, priority 2020, published 2023).

Legend:
Format in all cases: in vivo
[1] = system: Pigweed, Palmer (palmer amaranth, palmer pigweed, Amaranthus palmeri); test: Test A1 preemergence, Pigweed, Palmer
Procedure, shortened: (§1)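 Pre: seeds in loam/sand blend, directed soil spray. Post: potted plants, same soil, 2–10 cm, 1–2 leaf stage. Chemicals in non-phytotoxic solvent + surfactant for both.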

[2] = system: Ryegrass, Italian (Italian ryegrass, Lolium multiflorum); test: Test A1 preemergence, Ryegrass, Italian
Procedure, shortened: as §1

soybean (Glycine max) [3] = test: Test A1 preemergence, soybean
Procedure, shortened: as §1

[4] = system: blackgrass (Alopecurus myosuroides); test: Test A1 postemergence, blackgrass; conditions: Postemergence, 0 to 100 scale (0 no effect, 100 complete control)
Procedure, shortened: (§2)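 Plants grown in pots of loam/sand mix; preemergence = soil-directed spray on seeded pots, postemergence = spray at 1–2 leaves, height 2–10 cm; test chemicals formulated in non-phytotoxic solvent with surfactant.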

corn (Zea mays) = test: Test A1 postemergence, corn; conditions: Postemergence
Procedure, shortened: as §1

[5] = system: Foxtail, Giant (giant foxtail, Setaria faberi); test: Test A1 postemergence, Foxtail, Giant; conditions: Postemergence
Procedure, shortened: as §2

kochia (Bassia scoparia) = test: Test A1 postemergence, kochia; conditions: Postemergence
Procedure, shortened: as §2

[6] = system: Ryegrass, Italian (Italian ryegrass, Lolium multiflorum); test: Test A1 postemergence, Ryegrass, Italian; conditions: Postemergence
Procedure, shortened: as §2

soybean (Glycine max) [7] = test: Test A1 postemergence, soybean; conditions: Postemergence
Procedure, shortened: as §2

[8] = system: galium (catchweed bedstraw, Galium aparine); test: Test A1 postemergence, galium; conditions: Postemergence
Procedure, shortened: as §2

[9] = 31 g ai/ha, 0 to 100 scale (0 no effect, 100 complete control)
[10] = 125 g ai/ha, 0 to 100 scale, 0 no effect, 100 complete control
[11] = 31 g ai/ha, 0 to 100 scale (0 no effect, 100 complete control), 10 days

Structure (SMILES) | Plant response rating, Pigweed, Palmer [1, 9] | Plant response rating, Pigweed, Palmer [1, 10] | Plant response rating, Ryegrass, Italian [2, 9] | Plant response rating, Ryegrass, Italian [2, 10] | Plant response rating, Soybean (soybean (Glycine max) [3]; [9]) | Plant response rating, Soybean (soybean (Glycine max) [3]; [10]) | Plant response rating, Blackgrass ([4]; 31 g ai/ha, 10 days) | Plant response rating, Blackgrass ([4]; 125 g ai/ha) | Plant response rating, Corn (corn (Zea mays); [11]) | Plant response rating, Corn (corn (Zea mays); 125 g ai/ha, 0 to 100 scale) | Plant response rating, Foxtail, Giant [5, 11] | Plant response rating, Foxtail, Giant ([5]; 125 g ai/ha, 0 to 100 scale) | Plant response rating, Kochia (kochia (Bassia scoparia); [11]) | Plant response rating, Kochia (kochia (Bassia scoparia); 125 g ai/ha, 0 to 100 scale) | Plant response rating, Ryegrass, Italian [6, 11] | Plant response rating, Ryegrass, Italian ([6]; 125 g ai/ha, 0 to 100 scale) | Plant response rating, Soybean (soybean (Glycine max) [7]; [11]) | Plant response rating, Soybean (soybean (Glycine max) [7]; 125 g ai/ha, 0 to 100 scale) | Plant response rating, Galium [8, 11] | Plant response rating, Galium ([8]; 125 g ai/ha, 0 to 100 scale)
CCC1ON=C(c2cc(N(COC(=O)C(C)(C)C)S(=O)(=O)C(F)(F)F)c(C)cc2C)C1CC (stereo not drawn) [Compound 344] | 50 | 80 | 20 | 40 | 50 | 50 | 0 | 50 | 20 | 50 | 10 | 30 | 20 | 60 | 30 | 40 | 40 | 50 | 70 | 100
CCC1ON=C(c2cc(N(C(=O)OCC(C)C)S(=O)(=O)C(F)(F)F)c(C)cc2C)C1CC (stereo not drawn) [Compound 345] | 80 | 100 | 30 | 80 | 0 | 0 | 20 | 40 | 0 | 50 | 30 | 50 | 30 | 80 | 20 | 60 | 40 | 50 | 80 | 100
CCC1ON=C(c2cc(NS(=O)(=O)C(F)(F)F)c(C)cc2C)C1CC (stereo not drawn) [Compound 346] | 100 | 100 | 50 | 90 | 50 | 50 | 0 | 60 | 20 | 60 | 30 | 50 | 30 | 60 | 0 | 80 | 30 | 60 | 70 | 100
CCC1ON=C(c2cc(N(COC(=O)C(C)(C)C)S(=O)(=O)C(F)(F)F)c(C)cc2C)C1CC (stereo not drawn) [Compound 347] | 20 | 50 | 0 | 0 | 0 | 0 | 0 | 30 | 0 | 10 | 20 | 30 | 10 | 60 | 0 | 60 | 40 | 50 | 30 | 100
CCC1ON=C(c2cc(N(C(=O)OCC(C)C)S(=O)(=O)C(F)(F)F)c(C)cc2C)C1CC (stereo not drawn) [Compound 348] | 10 | 90 | 0 | 70 | 30 | 40 | 0 | 90 | 0 | 20 | 20 | 30 | 20 | 70 | 0 | 40 | 50 | 90 | 60 | 80
Cc1cc(C)c(C2=NOC3OCCC23)cc1NS(=O)(=O)C(F)(F)F (stereo not drawn) [Compound 349] | 100 | 100 | 70 | 80 | 20 | 60 | 40 | 70 | 40 | 90 | 30 | 90 | 70 | 80 | 60 | 90 | 30 | 70 | 100 | 100
Cc1cc(C)c(N(COC(=O)C(C)(C)C)S(=O)(=O)C(F)(F)F)cc1C(=O)N1CCC(F)(F)CC1 [Compound 350] | 20 | 60 | 30 | 30 | 0 | 0 | 0 | 0 | 0 | 0 | 10 | 30 | 0 | 60 | 30 | 30 | 10 | 40 | 70 | 90
CCOC(=O)N(c1cc(C(=O)N2CCC(F)(F)CC2)c(C)cc1C)S(=O)(=O)C(F)(F)F [Compound 351] | 80 | 90 | 40 | 90 | 20 | 30 | 0 | 80 | 0 | 70 | 30 | 50 | 10 | 30 | 20 | 50 | 30 | 50 | 80 | 100
Cc1cc(C)c(N(COC(=O)C(C)(C)C)S(=O)(=O)C(F)(F)F)cc1C1=NOC2OCCC12 (stereo not drawn) [Compound 352] | 70 | 100 | 20 | 100 | 30 | 40 | 0 | 20 | 20 | 80 | 20 | 70 | 50 | 70 | 0 | 90 | 20 | 60 | 100 | 100
